These are literature values, as cited in US20120148512A1, “Method for Increasing the Sun Protection Factor of a Cosmetic and/or Dermatological Preparation” (BASF SE, priority 2006, published 2012).

Regarding `COc1ccc(C(=O)CC(=O)c2ccc(C(C)(C)C)cc2)cc1` [BMDBM, 4-(tert-butyl)-4′-methoxydibenzoylmethane], the photostability entry (filter substance on its own) is “not photostable”.

On to `O=S(=O)(O)c1ccc2nc(-c3ccccc3)[nH]c2c1` [2-phenylbenzimidazole-5-sulfonic acid], for which the “absorption retained in the absorption maximum” value (following sun-simulated irradiation (5 and 10 MED)) is given as “more than 90%”.
